Read-outs that look alike come from different tables or passages of the source.
Assays:
Heregulin = assay: Inhibition of heregulin shedding in A549 cells; format: cell-based; settings: for inhibition at 40 µM: Homo sapiens, A549, read-out: Heregulin shedding inhibition
betacellulin = assay: Inhibition of betacellulin shedding in A549 cells; format: cell-based; settings: for inhibition at 40 µM: Homo sapiens, A549, read-out: BTC (betacellulin) shedding inhibition
zinc metalloproteinases = assay: Selectivity testing against extended panel of zinc metalloproteinases; format: biochemical; settings: ADAM17 versus five other metzincins
CXCL16 = CXCL16 shedding inhibition in HTSMC; format: cell-based, human; settings: for CXCL16 shedding inhibition: HTSMC, 10 μM; for inhibition at 10 µM: Homo sapiens, read-out: CXCL16 shedding inhibition
TGFα = assay: Inhibition of TGFα shedding in A549 cells; format: cell-based; settings: for inhibition at 40 µM: Homo sapiens, A549, read-out: TGFα shedding inhibition
[1] = tested on: EGFR ligand (heregulin, TGFα, HB-EGF, amphiregulin, and EGF); settings: cited from earlier work
HT1080 cells [2] = settings: cited from earlier work
PTK7 = settings: cited from earlier work
MDA-MB-231 cells = assay: CellTiter Glo cell viability assay; format: cell-based; settings: 72 h, up to 33 μM
HEPG2 cells = assay: CellTiter Glo cell viability assay; format: cell-based; settings: 72 h, up to 33 μM
TNFα = assay: Inhibition of TNFα shedding in THP-1 cells; format: cell-based; settings: Homo sapiens, THP-1, read-out: TNFα shedding inhibition
ADAM17 = ADAM17 (Homo sapiens, UniProt P78536); assay: ADAM17 glycosylated substrate assay; format: biochemical
ADAM17, sequence (P78536 215-824): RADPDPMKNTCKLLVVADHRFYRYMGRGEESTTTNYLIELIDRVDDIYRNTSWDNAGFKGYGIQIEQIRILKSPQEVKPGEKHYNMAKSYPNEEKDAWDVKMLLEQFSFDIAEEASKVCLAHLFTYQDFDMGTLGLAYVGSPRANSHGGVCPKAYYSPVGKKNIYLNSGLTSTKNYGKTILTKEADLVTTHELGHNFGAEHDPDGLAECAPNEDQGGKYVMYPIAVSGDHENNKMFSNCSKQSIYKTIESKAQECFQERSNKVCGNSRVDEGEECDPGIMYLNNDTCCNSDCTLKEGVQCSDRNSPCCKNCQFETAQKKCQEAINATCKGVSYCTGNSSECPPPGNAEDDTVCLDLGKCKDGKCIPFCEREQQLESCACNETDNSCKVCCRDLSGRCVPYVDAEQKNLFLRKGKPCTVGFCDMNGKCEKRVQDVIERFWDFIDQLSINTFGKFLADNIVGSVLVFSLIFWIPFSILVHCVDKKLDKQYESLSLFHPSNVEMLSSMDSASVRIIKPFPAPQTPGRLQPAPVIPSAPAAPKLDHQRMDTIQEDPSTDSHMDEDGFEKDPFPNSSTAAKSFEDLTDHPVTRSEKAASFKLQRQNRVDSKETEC

MMP14 = MMP14 (Homo sapiens, UniProt P50281); assay: MMP assay; format: biochemical
ADAM10 = ADAM10 (Homo sapiens, UniProt O14672); assay: ADAM10 glycosylated substrate assay; format: biochemical
ADAM10, sequence (O14672 214-748): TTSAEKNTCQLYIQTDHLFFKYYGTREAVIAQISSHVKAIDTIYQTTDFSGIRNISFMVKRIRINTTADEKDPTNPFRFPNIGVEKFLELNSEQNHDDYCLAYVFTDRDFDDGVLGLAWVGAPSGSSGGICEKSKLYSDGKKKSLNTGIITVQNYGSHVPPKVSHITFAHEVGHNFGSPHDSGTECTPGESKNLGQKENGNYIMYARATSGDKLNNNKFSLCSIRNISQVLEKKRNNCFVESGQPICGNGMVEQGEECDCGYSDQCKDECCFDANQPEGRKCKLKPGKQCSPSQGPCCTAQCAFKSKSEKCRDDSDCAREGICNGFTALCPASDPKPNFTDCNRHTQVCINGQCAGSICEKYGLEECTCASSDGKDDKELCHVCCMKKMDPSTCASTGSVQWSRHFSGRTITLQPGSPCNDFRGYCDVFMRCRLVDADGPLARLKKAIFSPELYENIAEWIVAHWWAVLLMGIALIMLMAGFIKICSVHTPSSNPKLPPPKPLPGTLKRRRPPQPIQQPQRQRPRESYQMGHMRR

MMP2 = MMP2 (Homo sapiens, UniProt P08253); assay: MMP assay; format: biochemical
MMP2, sequence (P08253 110-660, species assumed): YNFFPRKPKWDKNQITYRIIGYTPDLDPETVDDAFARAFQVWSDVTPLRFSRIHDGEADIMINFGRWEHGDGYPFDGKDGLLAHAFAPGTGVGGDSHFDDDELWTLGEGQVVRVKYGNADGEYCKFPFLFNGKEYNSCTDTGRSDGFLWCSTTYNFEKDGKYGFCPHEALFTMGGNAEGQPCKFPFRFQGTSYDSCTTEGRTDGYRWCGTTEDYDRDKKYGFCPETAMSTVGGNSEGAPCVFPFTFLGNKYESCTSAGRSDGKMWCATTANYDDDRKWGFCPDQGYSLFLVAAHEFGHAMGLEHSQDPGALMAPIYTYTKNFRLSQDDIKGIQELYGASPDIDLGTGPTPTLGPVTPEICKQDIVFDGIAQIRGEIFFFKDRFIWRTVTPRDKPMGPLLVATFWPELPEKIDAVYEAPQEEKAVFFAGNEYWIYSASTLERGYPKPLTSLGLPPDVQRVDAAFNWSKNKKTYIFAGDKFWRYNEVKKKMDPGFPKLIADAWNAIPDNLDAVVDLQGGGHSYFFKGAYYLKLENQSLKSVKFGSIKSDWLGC

MMP9 = MMP9 (Homo sapiens, UniProt P14780); assay: MMP assay; format: biochemical
MMP9, sequence (P14780 94-707, species assumed): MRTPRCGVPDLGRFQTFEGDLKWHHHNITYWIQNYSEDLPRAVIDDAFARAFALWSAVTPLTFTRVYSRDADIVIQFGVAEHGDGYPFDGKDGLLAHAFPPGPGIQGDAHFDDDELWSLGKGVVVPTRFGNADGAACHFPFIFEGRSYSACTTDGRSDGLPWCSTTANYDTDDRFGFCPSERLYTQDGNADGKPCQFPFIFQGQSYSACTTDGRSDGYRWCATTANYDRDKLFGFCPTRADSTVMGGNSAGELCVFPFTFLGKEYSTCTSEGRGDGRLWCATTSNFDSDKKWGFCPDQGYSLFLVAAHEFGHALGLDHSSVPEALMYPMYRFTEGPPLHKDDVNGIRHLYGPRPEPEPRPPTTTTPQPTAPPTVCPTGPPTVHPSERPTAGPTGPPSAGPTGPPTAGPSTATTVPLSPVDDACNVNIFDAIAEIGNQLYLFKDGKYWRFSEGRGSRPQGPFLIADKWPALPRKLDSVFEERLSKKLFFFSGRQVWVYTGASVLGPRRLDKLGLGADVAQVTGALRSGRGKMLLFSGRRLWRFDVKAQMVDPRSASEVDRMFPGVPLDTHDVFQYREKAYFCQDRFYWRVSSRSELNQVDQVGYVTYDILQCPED

MMP8 = MMP8 (Homo sapiens, UniProt P22894); assay: MMP assay; format: biochemical
MMP8, sequence (P22894 101-467, species assumed): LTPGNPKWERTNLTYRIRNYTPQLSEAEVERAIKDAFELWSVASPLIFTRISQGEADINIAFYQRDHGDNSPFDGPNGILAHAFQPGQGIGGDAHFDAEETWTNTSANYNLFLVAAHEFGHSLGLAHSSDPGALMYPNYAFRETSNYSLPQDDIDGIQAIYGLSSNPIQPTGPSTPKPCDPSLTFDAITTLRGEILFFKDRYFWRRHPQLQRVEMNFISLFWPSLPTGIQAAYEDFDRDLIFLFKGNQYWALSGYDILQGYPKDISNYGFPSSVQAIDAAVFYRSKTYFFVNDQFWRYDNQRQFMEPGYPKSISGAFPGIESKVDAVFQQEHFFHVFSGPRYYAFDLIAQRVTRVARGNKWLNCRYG

A549 cells [3] = assay: CellTiter Glo cell viability assay; format: cell-based; settings: 72 h, up to 33 μM
A549 cells [4] = assay: Synergy studies, A549 viability assay
HT1080 cells [5] = assay: Transwell invasion assay; format: cell-based, human; settings: Matrigel
L622D-PTK7 = assay: Inhibition of PTK7 shedding in HT1080-L622D cells; format: cell-based, human
wtPTK7 = assay: Inhibition of PTK7 shedding in SW480 cells; format: cell-based
Notch = settings: SKMEL-28, 25 μM; ref Personal communication from Dr. Kaushik (Kansas University Medical Center); cited from earlier work

SMILES | inhibition at 40 µM (Heregulin) | inhibition at 40 µM (betacellulin) | selectivity profile (zinc metalloproteinases) | CXCL16 shedding inhibition (CXCL16) | inhibition at 10 µM (CXCL16) | inhibition at 40 µM (TGFα) | viability of MDA-MB-231 cells (MDA-MB-231 cells) | viability of HEPG2 cells (HEPG2 cells) | other results
CCCC[C@H]1CN([C@@H](Cc2ccc(O)cc2)CN2CCC[C@H]2CN2C(=O)C(=O)NC[C@H]2Cc2ccc3ccccc3c2)C(=O)C(=O)N1CCC12CC3CC(CC(C3)C1)C2 [Compound 16, (S)-4-(2-(Adamantan-1-yl)ethyl)-5-butyl-1-((S)-1-(4-hydroxyphenyl)-3-((S)-2-(((R)-6-(naphthalen-2-ylmethyl)-2,3-dioxopiperazin-1-yl)methyl)pyrrolidin-1-yl)propan-2-yl)piperazine-2,3-dione] | 0% | 0% | inhibiting only ADAM17 | did not inhibit | 0% | 0% |  |  | 
CNC(=O)[C@@H](NC(=O)[C@H](CC(C)C)[C@H](O)C(=O)NO)C(C)(C)C [Marimastat, (2S,3R)-N4-[(1S)-2,2-dimethyl-1-[(methylamino)carbonyl]propyl]-N1,2-dihydroxy-3-(2-methylpropyl)butanediamide, reference compound] |  |  |  |  |  |  |  |  | betacellulin shedding inhibition (betacellulin; A549, 10 μM): almost complete inhibition; shedding of EGFR ligands (heregulin, TGFα, HB-EGF, amphiregulin, EGF) ([1]; A549 cells): inhibited shedding of each tested EGFR ligand; soluble TGFα in supernatant (TGFα; A549, PMA, 10 μM): decreased soluble TGFα in the supernatant of A549 cells to the level of non-PMA-treated control
COC(=O)N1CC2(CC2)C[C@H](C(=O)NO)[C@H]1C(=O)N1CC=C(c2ccccc2)CC1 [INCB3619] |  |  |  |  |  |  |  |  | invasion of HT1080 cells (HT1080 cells [2]): able to inhibit; shedding of PTK7 (PTK7): able to inhibit; heregulin shedding in A549 cells [1]: abrogation of heregulin shedding
O=C1NC[C@H](Cc2ccccc2)N(C[C@@H]2CCCN2C[C@H](Cc2ccccc2)N2C[C@H](Cc3ccc(O)cc3)N(CCC34CC5CC(CC(C5)C3)C4)C(=O)C2=O)C1=O [Compound 20, (S)-4-(2-(Adamantan-1yl)ethyl)-1-((S)-1-((S)-2-(((S)-6-benzyl-2,3-dioxopiperazin-1-yl)methyl)pyrrolidin-1-yl)-3-phenylpropan-2-yl)-5-(4-hydroxybenzyl)piperazine-2,3-dione] | 0% | 0% | inhibiting only ADAM17 | did not inhibit | 0% | 0% | did not inhibit viability | did not inhibit viability | 
O=C1NC[C@H](Cc2ccccc2)N(C[C@@H]2CCCN2C[C@@H](CC2CCCCC2)N2C[C@H](Cc3ccc(O)cc3)N(CCc3ccccc3)C(=O)C2=O)C1=O [Compound 18, (S)-1((R)-1((S)-2-(((S)-6-Benzyl-2,3-dioxopiperazin-1-yl)methyl)-pyrrolidin-1-yl)-3-cyclohexylpropan-2-yl)-5-(4-hydroxybenzyl)-4-phenethylpiperazine-2,3-dione] | 0% | 0% |  | did not inhibit | 0% | 0% | did not inhibit viability | did not inhibit viability | 
O=C1NC[C@H](Cc2ccccc2)N(C[C@@H]2CCCN2C[C@@H](CC2CCCCC2)N2C[C@H](Cc3ccccc3)N(CCc3ccccc3)C(=O)C2=O)C1=O [Compound 21, (S)-5-Benzyl-1-((R)-1-((S)-2-(((S)-6-benzyl-2,3-dioxopiperazin-1-yl)methyl)pyrrolidin-1-yl)-3-cyclohexylpropan-2-yl)-4-phenethylpiperazine-2,3-dione] |  | 0% | inhibiting only ADAM17 |  |  | 0% |  |  | inhibition at 25 µM (TNFα): 0%; IC50 (ADAM17): 8.5 µM; inhibition at 100 µM (ADAM17; read-out: ADAM17 %inhibition at 100 μM): 100%; IC50 (MMP14): > 100 µM; IC50 (ADAM10): > 100 µM; IC50 (MMP2): > 100 µM; IC50 (MMP9): > 100 µM; IC50 (MMP8): > 100 µM
O=C1NC[C@@H](Cc2ccc(O)cc2)N(C[C@@H]2CCCN2C[C@@H](Cc2ccc3ccccc3c2)N2C[C@H](Cc3ccc(O)cc3)N(CCC34CC5CC(CC(C5)C3)C4)C(=O)C2=O)C1=O [Compound 17, (5R)-4-(2-((1R,3R)-Adamantan-1-yl)ethyl)-5-(4-hydroxybenzyl)-1-((2R)-1-(2-(((R)-6-(4-hydroxybenzyl)-2,3-dioxopiperazin-1-yl)-methyl)pyrrolidin-1-yl)-3-(naphthalen-2-yl)propan-2-yl)piperazine-2,3-dione] | 100% | 0% |  | did not inhibit | 0% | 0% | did not inhibit viability | did not inhibit viability | Heregulin shedding inhibition (Heregulin; A549, PMA, 40 μM): completely inhibited shedding; viability of A549 cells (A549 cells [3]): no intrinsic activity; potentiation of gefitinib activity against A549 cells (A549 cells [4]; 40 μM compound 17): potentiated gefitinib activity; potentiation of doxorubicin activity (A549 cells [4]; A549, 40 μM compound 17): did not potentiate the activity; potentiation of etoposide activity (A549 cells [4]; A549, 40 μM compound 17): did not potentiate the activity; invasion of HT1080 cells (HT1080 cells [5]): dose-dependent inhibition of invasion; ADAM10 IC50 (ADAM10; Table 4 selectivity panel): did not inhibit; PTK7 shedding inhibition (L622D-PTK7; HT1080 (L622D-PTK7), PMA, 25–100 μM): 25–50%; shedding of L622D-PTK7 (L622D-PTK7; HT1080-L622D, PMA stimulated, 50 and 100 μM): inhibited shedding; PTK7 shedding inhibition (wtPTK7; SW480 (wtPTK7), PMA, 25–100 μM): 0–82%; shedding of wtPTK-7 (wtPTK7; SW480, PMA stimulated, 50 and 100 μM): inhibited shedding; shedding of TGFα (TGFα; A549, up to 100 μM): did not affect shedding; Notch shedding inhibition (Notch): 0%

Reference: paper PMC5420329 (Journal of medicinal chemistry, 2015)
